Assay results as given in patent US10782295B2, “Cysteine-reactive ligand discovery in proteomes” (THE SCRIPPS RESEARCH INSTITUTE, priority 2013, dated 2020).

Legend:
Test in all cases: competitive isoTOP-ABPP, MDA-MB-231 soluble proteome
Format in all cases: binding
CHRAC1 = biological target: T1, CHRAC1 (Homo sapiens, UniProt Q9NRG0); conditions: 100 μM LDE, 60 min; peptide ATELFVQC*LATYSYR
T1 construct: directly in native proteomes; endogenous in cells; host or cells: MDA-MB-231
T1 sequence (Q9NRG0 1-131): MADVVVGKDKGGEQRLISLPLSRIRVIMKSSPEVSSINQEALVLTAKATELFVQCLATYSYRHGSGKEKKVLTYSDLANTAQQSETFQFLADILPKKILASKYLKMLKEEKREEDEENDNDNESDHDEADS
Protocol: (§1) Here, we envisioned that isoTOP-ABPP could be advanced to discover and quantify reactions between cysteines in proteomes and any electrophilic compound. In this advanced, ‘competitive’ version of isoTOP-ABPP (FIG. 1a), a proteome is treated with an electrophile (experimental sample) or DMSO (control sample). Both proteomic samples are then labeled with the IA probe and conjugated by CuAAC to light and heavy azide-biotin tags, respectively. The light and heavy samples are then mixed and subjected to our described isoTOP-ABPP protocol for enrichment, identification, and quantification of IA-labeled cysteines^30. Electrophile-modified cysteines are quantified by measuring the MS1 chromatographic peak ratios (R values) for heavy (DMSO-treated) over light (electrophile-treated) samples, with higher R values reflecting greater sensitivity to the electrophile. In this format, competitive isoTOP-ABPP can assay electrophiles against 1000+ cysteines in parallel directly in native proteomes without requiring any chemical modification to the electrophiles themselves.
(§2) Competitive isoTOP-ABPP experiments were performed in quadruplicate using the soluble proteome of the human breast cancer cell line MDA-MB-231 cell line. Proteomes were treated with 100 μM HNE, 15d-PGJ2, or 2-HD, for 60 minutes, followed by the IA-probe (100 μM, 60 min) A total of ˜1400 cysteine reactivities were quantified across the aggregate data set, with at least 900 cysteine reactivities quantified for each LDE (FIG. 2a) more than 750 of which were quantified for all the three electrophiles.
(§3) HNE was purchased from EMD biosciences, 15d-PGJ2 was purchased from Cayman Chemicals and 2-HD was purchased from Santa Cruz Biotechnology. Proteome samples were diluted to a 4 mg protein/mL solution in PBS. For each profiling experiment, one aliquot of the proteome sample (0.5 mL) was treated with 100 μM of LDE using 5 μL of a 10 mM stock and the other aliquot was treated with 5 μL of either ethanol (for HNE and 15d-PGJ2) or DMSO (for 2-HD) as control. For the concentration-dependent profiling experiments using HNE, aliquots of the proteomes (0.5 mL each) were treated with 5, 10, 50, 100 and 500 μM of HNE using 5 μL of 0.5, 1.0, 5, 10 and 50 mM of stock solution, respectively. After 60 minutes of treatment at room temperature, both the LDE-treated and control aliquots were passed through a NAP-5 Sephadex column (GE healthcare) to remove any unreacted LDE. The volume of each aliquot was increased to 1 mL with the concentration at 2 mg/mL after this step.
(§4) Each of the control and LDE-treated proteome samples (˜2 mg protein/mL in 1 mL volume) was treated with 100 μM of IA-probe using 10 μL of a 10 mM stock in DMSO. The labeling reactions were incubated at room temperature for 1 hour. Click chemistry (acetylene-azide cycloaddition) was performed by the addition of 100 μM of either the Heavy-TEV-Tag (for the control sample) or Light-TEV-Tag (for the LDE-treated sample) (20 μL of a 5 mM stock), 1 mM TCEP (fresh 50× stock in water), 100 μM ligand (17× stock in DMSO:t-Butanol 1:4) and 1 mM CuSO4 (50× stock in water). Samples were allowed to react at room temperature for 1 hour. After the click chemistry step, the light and heavy-labeled samples were mixed together and centrifuged (5900×g, 4 min, 4° C.) to pellet the precipitated proteins.
(§5) The pellets were washed twice in cold MeOH, after which the pellet was solubilized in PBS containing 1.2% SDS via sonication and heating (5 min, 80° C.). Samples were subjected to streptavidin enrichment of probe-labeled proteins, sequential on-bead trypsin and TEV digestion, and liquid chromatography-mass spectrometry (LC-MS) analysis according to the published isoTOP-ABPP protocol^30.
(§6) IA-probe labeled peptides were identified by SEQUEST2 and DTASelect3, and the quantification of heavy/light ratios (isoTOP-ABPP ratios, R) was performed by an in-house software (CIMAGE) as previously described. […]

DYNC1L11 = biological target: T2, DYNC1L11 (Homo sapiens, UniProt Q9Y6G9); conditions: 100 μM LDE, 60 min; peptide SEQ ID NO: 25 (...NLWSC*ILSEVSTR)
T2 construct: directly in native proteomes; endogenous in cells; host or cells: MDA-MB-231
Protocol: as §1, §2, §3, §4, §5, §6

IDH1 = biological target: T3, IDH1 (Homo sapiens, UniProt O75874); conditions: 100 μM LDE, 60 min; peptide SEGGFIWAC*K
T3 construct: directly in native proteomes; endogenous in cells; host or cells: MDA-MB-231
Protocol: as §1, §2, §3, §4, §5, §6

PEF1 = biological target: T4, PEF1 (Homo sapiens, UniProt Q9UBV8); conditions: 100 μM LDE, 60 min; peptide QALVNC*NWSSFNDETCLMMINMFDK
T4 construct: directly in native proteomes; endogenous in cells; host or cells: MDA-MB-231
T4 sequence (Q9UBV8 1-284): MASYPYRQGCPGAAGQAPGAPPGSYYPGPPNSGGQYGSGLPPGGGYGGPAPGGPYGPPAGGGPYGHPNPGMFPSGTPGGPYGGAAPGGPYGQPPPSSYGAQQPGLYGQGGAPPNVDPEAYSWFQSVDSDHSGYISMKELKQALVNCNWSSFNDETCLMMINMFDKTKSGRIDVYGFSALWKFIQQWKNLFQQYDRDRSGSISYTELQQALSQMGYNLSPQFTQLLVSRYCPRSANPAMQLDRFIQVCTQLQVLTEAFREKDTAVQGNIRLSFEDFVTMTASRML
Protocol: as §1, §2, §3, §4, §5, §6

RPL23 = biological target: T5, RPL23 (Homo sapiens, UniProt P62829); conditions: 100 μM LDE, 60 min; peptide ISLGLPVGAVINC*ADNTGAK
T5 construct: directly in native proteomes; endogenous in cells; host or cells: MDA-MB-231
Protocol: as §1, §2, §3, §4, §5, §6

RPL24 = biological target: T6, RPL24 (Homo sapiens, UniProt P83731); conditions: 100 μM LDE, 60 min; peptide C*ESAFLSK
T6 construct: directly in native proteomes; endogenous in cells; host or cells: MDA-MB-231
Protocol: as §1, §2, §3, §4, §5, §6

T2 sequence (Q9Y6G9 whole entry): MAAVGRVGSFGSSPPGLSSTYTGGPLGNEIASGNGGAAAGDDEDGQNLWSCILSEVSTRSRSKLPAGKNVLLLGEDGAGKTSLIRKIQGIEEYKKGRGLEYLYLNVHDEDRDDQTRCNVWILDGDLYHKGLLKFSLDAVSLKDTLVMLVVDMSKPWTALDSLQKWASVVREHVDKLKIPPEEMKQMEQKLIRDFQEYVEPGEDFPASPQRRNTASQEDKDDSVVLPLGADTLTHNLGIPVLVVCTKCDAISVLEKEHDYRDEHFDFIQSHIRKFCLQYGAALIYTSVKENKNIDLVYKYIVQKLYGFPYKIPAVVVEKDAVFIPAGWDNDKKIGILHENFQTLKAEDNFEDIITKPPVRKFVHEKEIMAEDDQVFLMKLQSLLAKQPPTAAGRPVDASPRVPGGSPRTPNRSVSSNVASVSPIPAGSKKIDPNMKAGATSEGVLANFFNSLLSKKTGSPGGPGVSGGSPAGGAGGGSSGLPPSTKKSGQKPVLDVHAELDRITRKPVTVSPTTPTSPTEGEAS
T3 sequence (O75874 whole entry): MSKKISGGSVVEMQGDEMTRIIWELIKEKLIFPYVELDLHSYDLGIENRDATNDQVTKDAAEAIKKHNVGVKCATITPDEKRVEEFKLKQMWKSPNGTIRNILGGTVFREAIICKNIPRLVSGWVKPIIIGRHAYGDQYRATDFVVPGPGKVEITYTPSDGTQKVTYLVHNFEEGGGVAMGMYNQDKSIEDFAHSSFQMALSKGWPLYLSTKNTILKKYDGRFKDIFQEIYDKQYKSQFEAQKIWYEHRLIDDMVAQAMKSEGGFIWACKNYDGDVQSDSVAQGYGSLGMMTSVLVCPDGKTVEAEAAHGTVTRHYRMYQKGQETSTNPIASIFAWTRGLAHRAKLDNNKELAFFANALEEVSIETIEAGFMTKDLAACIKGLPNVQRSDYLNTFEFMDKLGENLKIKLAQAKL

SMILES | R value (isoTOP-ABPP ratio heavy/light) for IA-labeled cysteine of CHRAC1 (CHRAC1) | R value (isoTOP-ABPP ratio heavy/light) for IA-labeled cysteine of DYNC1L11 (DYNC1L11) | R value (isoTOP-ABPP ratio heavy/light) for IA-labeled cysteine of IDH1 (IDH1) | R value (isoTOP-ABPP ratio heavy/light) for IA-labeled cysteine of PEF1 (PEF1) | R value (isoTOP-ABPP ratio heavy/light) for IA-labeled cysteine of RPL23 (RPL23) | R value (isoTOP-ABPP ratio heavy/light) for IA-labeled cysteine of RPL24 (RPL24)
CCCCCCCCCCCCC/C=C/C=O [2-HD, 2-trans-hexadecenal] | 1.06 | 1.1 | 1.13 | 1.25 | 1.87 | 1.25
CCCCCC(O)/C=C/C=O (stereo not drawn) [4-HNE, 4-Hydroxynonenal] | 1.94 | 2.59 | 1.3 | 5.14 | 1.73 | 1.74
CCCCC/C=C/C=C1/C(=O)C=C[C@@H]1C/C=C\CCCC(=O)O [PGJ2, 15-deoxy-Δ12,14-prostaglandin J2] | 12.32 | 5.18 | 6.66 | 2.9 | 5.06 | 6.78
